Source: patent publication US6225284A, “Somatostatin peptides” (Novartis AG, priority 1995, dated 2001)
Numbered stars: 1 amine (or outer) side, 2 acyl side, 3 side chain; on linkers, the order of the positions; unused ones are H or OH. Square brackets hold non-standard residues; d marks the D form. Side chains are listed from the residue outwards. Peptide text beside a SMILES is read from it. * marks the point of attachment. Ethylenediamine = C(CN[*:2])N[*:1]; cisHyp = O=C(O)[C@@H]1C[C@H](O)CN1; Hyp = O=C(O)[C@@H]1C[C@@H](O)CN1; NHCH2CH2NMe2 = CN(C)CCN*; CO = O=C([*:1])[*:2]; Bn = c1ccc(C*)cc1

Columns and labels:
[1] = target: hSST-1 (Homo sapiens, UniProt P30872); test: competition binding assay, membranes of CHO cells expressing hSST-1, [125I-Tyr3]-octreotide; conditions: competition with [125I-Tyr3]-octreotide; read-out: IC50 (nM) hSSTR-1
Chain of hSST-1 (P30872 whole entry): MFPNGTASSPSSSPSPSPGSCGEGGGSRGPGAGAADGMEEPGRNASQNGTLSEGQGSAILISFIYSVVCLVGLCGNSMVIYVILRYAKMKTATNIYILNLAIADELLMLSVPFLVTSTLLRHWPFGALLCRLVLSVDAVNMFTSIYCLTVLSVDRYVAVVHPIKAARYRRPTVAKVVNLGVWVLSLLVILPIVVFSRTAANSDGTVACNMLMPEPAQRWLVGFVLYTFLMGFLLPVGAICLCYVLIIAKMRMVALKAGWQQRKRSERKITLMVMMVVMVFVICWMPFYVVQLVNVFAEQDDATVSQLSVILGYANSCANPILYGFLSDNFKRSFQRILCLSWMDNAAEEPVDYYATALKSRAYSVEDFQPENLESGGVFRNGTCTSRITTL
Method: (§1) The binding assays may be carried out as disclosed hereunder using membranes prepared from hSST-1, hSST-2, hSST-3, hSST-4 or hSST-5 selective cell lines, e.g. CHO cells stably expressing hSST-1, hSST-2, hSST-3, hSST-4 or hSST-5.
(§2) Brain or pituitary tissue is used in which hSST are visualized with e.g. in situ hybridization and/or receptor autoradiography. Membranes are prepared according to known methods, e.g. as disclosed by J C. Reubi et al. in J. Clin. Endocrinol. Metab. 1987, 65, 1127-1137. Membranes prepared from hSST selective cell lines, e.g. CHO cells stably expressing hSST-1 or hSST-2 or hSST-3 or hSST-4 or hSST-5 are incubated in triplicate in a total volume of 300 μl at 22° C. for 30 min with increasing concentrations of [^125 I-Tyr^3 ]-octreotide in 10 mmol/l Hepes buffer (pH 7.6) containing 0.5% BSA. The incubation is terminated by rapid filtration through Whatman GF/B glass fiber filters, which are then washed four times each with 5 ml ice cold 10 mmol/l Tris/150 mmol/l NaCl. The filters are counted in a LKB counter at 78% counting efficiency. Specific binding is total binding minus non-specific binding in the presence of 1 μmol/l somatostatin-14. The experiments are carried out in triplicate. The affinity constant (KD) and number of binding sites are calculated from Scatchard plots of the data.
(§3) The COMPOUNDS OF THE INVENTION, e.g. as indicated above, respectively, have in the above binding assays towards hsST-1, hSST-2, hSST-3, hSST-4 and/or hSST-5 an IC50 in the nMolar range, preferably an IC50 of from 0.1 to 10 nM (IC50 =concentration for half-maximal inhibition in a competition binding assay using [^125 I-Tyr^3 ]-octreotide the same radioligand as indicated above).

[2] = target: hSST-2 (Homo sapiens, UniProt P30874); test: competition binding assay, membranes of CHO cells expressing hSST-2, [125I-Tyr3]-octreotide; conditions: competition with [125I-Tyr3]-octreotide; read-out: IC50 (nM) hSSTR-2
Chain of hSST-2 (P30874 whole entry): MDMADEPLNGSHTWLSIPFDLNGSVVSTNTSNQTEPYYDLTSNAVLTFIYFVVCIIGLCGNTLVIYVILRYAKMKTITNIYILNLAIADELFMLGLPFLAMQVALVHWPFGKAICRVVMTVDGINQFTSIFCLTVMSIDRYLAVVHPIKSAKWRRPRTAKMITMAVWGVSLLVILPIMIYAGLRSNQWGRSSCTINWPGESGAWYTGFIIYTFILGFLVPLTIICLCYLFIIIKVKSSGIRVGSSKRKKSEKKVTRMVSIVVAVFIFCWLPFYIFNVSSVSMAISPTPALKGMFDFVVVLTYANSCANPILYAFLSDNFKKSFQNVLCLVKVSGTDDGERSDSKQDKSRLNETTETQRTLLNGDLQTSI
Method: as §1, §2, §3

[3] = target: hSST-3 (Homo sapiens, UniProt P32745); test: competition binding assay, membranes of CHO cells expressing hSST-3, [125I-Tyr3]-octreotide; conditions: competition with [125I-Tyr3]-octreotide; read-out: IC50 (nM) hSSTR-3
Chain of hSST-3 (P32745 whole entry): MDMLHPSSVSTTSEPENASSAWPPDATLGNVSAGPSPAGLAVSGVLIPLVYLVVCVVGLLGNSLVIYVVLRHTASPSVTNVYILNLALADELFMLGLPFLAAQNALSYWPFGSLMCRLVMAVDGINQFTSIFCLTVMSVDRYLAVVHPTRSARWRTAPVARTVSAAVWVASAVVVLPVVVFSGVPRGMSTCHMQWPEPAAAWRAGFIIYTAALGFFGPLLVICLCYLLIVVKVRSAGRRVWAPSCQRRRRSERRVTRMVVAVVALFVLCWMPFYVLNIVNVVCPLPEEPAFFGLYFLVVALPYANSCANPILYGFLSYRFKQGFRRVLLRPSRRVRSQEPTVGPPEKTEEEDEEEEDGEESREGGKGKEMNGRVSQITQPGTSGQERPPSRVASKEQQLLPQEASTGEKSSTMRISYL
Method: as §1, §2, §3

[4] = target: hSST-4 (Homo sapiens, UniProt P31391); test: competition binding assay, membranes of CHO cells expressing hSST-4, [125I-Tyr3]-octreotide; conditions: competition with [125I-Tyr3]-octreotide; read-out: IC50 (nM) hSSTR-4
Chain of hSST-4 (P31391 whole entry): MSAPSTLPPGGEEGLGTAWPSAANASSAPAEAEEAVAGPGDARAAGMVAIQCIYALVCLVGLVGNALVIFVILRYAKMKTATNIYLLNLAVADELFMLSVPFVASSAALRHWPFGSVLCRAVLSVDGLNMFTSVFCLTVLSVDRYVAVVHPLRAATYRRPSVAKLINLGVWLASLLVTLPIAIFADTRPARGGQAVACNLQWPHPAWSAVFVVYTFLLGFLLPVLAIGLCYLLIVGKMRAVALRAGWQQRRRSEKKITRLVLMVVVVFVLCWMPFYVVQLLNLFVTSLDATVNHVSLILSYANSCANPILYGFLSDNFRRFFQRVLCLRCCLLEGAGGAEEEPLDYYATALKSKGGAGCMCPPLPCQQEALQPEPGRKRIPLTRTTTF

[5] = target: hSST-5 (Homo sapiens, UniProt P35346); test: competition binding assay, membranes of CHO cells expressing hSST-5, [125I-Tyr3]-octreotide; conditions: competition with [125I-Tyr3]-octreotide; read-out: IC50 (nM) hSSTR-5
Chain of hSST-5 (P35346 whole entry): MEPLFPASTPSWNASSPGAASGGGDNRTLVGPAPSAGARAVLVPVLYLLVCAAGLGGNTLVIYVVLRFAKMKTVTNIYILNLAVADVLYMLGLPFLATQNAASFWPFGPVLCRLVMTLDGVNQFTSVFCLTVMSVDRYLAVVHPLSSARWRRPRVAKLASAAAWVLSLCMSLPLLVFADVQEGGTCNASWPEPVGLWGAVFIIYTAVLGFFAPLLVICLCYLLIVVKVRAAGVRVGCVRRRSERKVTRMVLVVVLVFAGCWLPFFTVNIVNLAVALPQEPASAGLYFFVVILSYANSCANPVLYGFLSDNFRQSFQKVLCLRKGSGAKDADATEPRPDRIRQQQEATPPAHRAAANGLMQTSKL
Method: as §1, §2, §3

[6] = tested on: GH release from cultured pituitary cells; test: inhibition of GH release in vitro from cultured pituitary cells; format: cell-based; conditions: rat pituitary cells, 3×10^-10 M growth hormone releasing factor, two to four hours
Method: Furthermore, the COMPOUNDS OF THE INVENTION show GH-release inhibiting activity as indicated by the inhibition of GH release in vitro from cultured pituitary cells. Anterior pituitary glands from adult male rats are cut into small pieces and dispersed using 0.1% trypsin in 20 mM HEPES buffer. The dispersed cells are cultured for four days in MEM (Gibco) supplemented with 5% fetal calf serum, 5% horse serum, 1 mM NaHCO3, 2.5 nM dexamethasone, 2.5 mg/ml insulin and 20 U/ml Pen/Strep. On the day of the experiment the attached cells are washed two times with Krebs-Ringer medium buffered with 20 mM HEPES and supplemented with 5 mM glucose and 0.2% BSA. Subsequently the cells are incubated for two to four hours with the test compound in the presence of 3×10^-10 M growth hormone releasing factor. The amount of growth hormone released into the medium is measured by RIA.

[7] = tested on: AR42J rat pancreatic tumor cell line; test: AR42J proliferation test; format: cell-based; conditions: exposure 2 to 5 days; ± SE; read-out: IC50, inhibition of proliferation of AR42J tumor cells
Method: The AR42J rat pancreatic tumor cell line is derived from an azaserine-induced exocrine pancreatic tumor (Jessop and Hay, 1980). The absence of mycoplasma is regularly checked using bisbenzimide staining and the GenProbe hybridization assay (San Diego, Calif.). Cultures are propagated in DMEM supplemented with 10% fetal calf serum (FCS) at 5% CO2. Cells are grown in the absence of antibiotics or antifungal agents. Subconfluent AR42J cells are trypsinized, diluted in DMEM +2.5% FCS and seeded in uncoated 96-well plates. After a 48-hr incubation period (Day 0), the number of cells in a separate control plate is determined both by counting cells in a Coulter counter and by the SRB calorimetric assay. The cells are then exposed to the compound to be tested for 2 to 5 days at various concentrations and then counted.

Compound	IC50 [1] [nM]	IC50 [2] [nM]	IC50 [3] [nM]	IC50 [4] [nM]	IC50 [5] [nM]	IC50 [6] [nM]	IC50 [7] [nM]
NCCCC[C@@H]1NC(=O)[C@@H](Cc2c[nH]c3ccccc23)NC(=O)[C@H](Cc2ccccc2)NC(=O)[C@@H]2C[C@@H](O)CN2C(=O)[C@H](Cc2ccccc2)NC(=O)[C@H](Cc2ccc(OCc3ccccc3)cc2)NC1=O [Example 1, Cyclo [HyPro-Phe-DTrp-Lys-Tyr(Bzl)-Phe]] (cyclo(F[Hyp]F[dW]KY(Bn)))	63	0.94	1.9	320	0.35		
NCCCC[C@@H]1NC(=O)[C@@H](Cc2c[nH]c3ccccc23)NC(=O)[C@H](Cc2ccccc2)NC(=O)[C@@H]2C[C@@H](OC(=O)NCCN)CN2C(=O)[C@H](Cc2ccccc2)NC(=O)[C@H](Cc2ccc(OCc3ccccc3)cc2)NC1=O [Example 2, Cyclo[{4-(NH2 --C2 H4 --NH--CO--O--)Pro}-Phe-DTrp-Lys-Tyr(Bzl)-Phe]] (cyclo(F[Hyp]([CO-Ethylenediamine])F[dW]KY(Bn)))	4.6	2.3	0.93	490	0.46	0.4	0.7 ± 0.3
NCCCC[C@@H]1NC(=O)[C@@H](Cc2c[nH]c3ccccc23)NC(=O)[C@H](Cc2ccccc2)NC(=O)[C@@H]2C[C@@H](OC(=O)NCCN)CN2C(=O)[C@H](Cc2ccccc2)NC(=O)[C@H](COCc2ccccc2)NC1=O [Example 31] (cyclo(F[Hyp]([CO-Ethylenediamine])F[dW]KS(Bn)))	0.5	0.8	3.9		2.9		
CN(C)CCNC(=O)O[C@@H]1C[C@H]2C(=O)N[C@@H](Cc3ccccc3)C(=O)N[C@H](Cc3c[nH]c4ccccc34)C(=O)N[C@@H](CCCCN)C(=O)N[C@@H](COCc3ccccc3)C(=O)N[C@@H](Cc3ccccc3)C(=O)N2C1 [Example 36] (cyclo(F[Hyp]([CO-NHCH2CH2NMe2])F[dW]KS(Bn)))	0.6	1.3	2.4		4.5		
NCCCC[C@@H]1NC(=O)[C@@H](Cc2c[nH]c3ccccc23)NC(=O)[C@H](Cc2ccccc2)NC(=O)[C@@H]2C[C@H](OC(=O)NCCN)CN2C(=O)[C@H](Cc2ccccc2)NC(=O)[C@H](COCc2ccccc2)NC1=O [Example 32] (cyclo(F[cisHyp]([CO-Ethylenediamine])F[dW]KS(Bn)))	3.8	0.13	57		2		
